“Also recorded” adds a separate entry of the source.
Assays:
[1] = tested on: zinc-dependent Aβ-degrading enzymes (ACE, ECE, NEP) in M1-4HSC lysates; experiment: Inhibition by EGTA of Aβ40/42 degradation in M1-4HSC lysates; format: biochemical; settings: 5 mM EGTA; 30 and 60 minutes
Description: To quantify the Aβ42-degading ability of M1-4HSC lysate's, cell lysates from M1-4HSC (50,000 cells/ml) were obtained by 2 freezing thawing cycles at −80° C. and centrifugation for 10 min at 20,000 g.
To confirm that the disappearance of Aβ from HSC lysates reflects its enzymatic degradation rather than non-specific loss that can occur in cell lysates the activity of zinc-dependent AR-degrading enzymes comprising angiotensin converting enzyme (ACE) and endothelin converting enzyme (ECE) known to be present in HSC1 as well as NEP was blocked by 5 mM EGTA (white bars in FIG. 1D and FIG. 1E).

[2] = tested on: Col-1 in M1-4HSC; experiment: Col-1 production in M1-4HSC treated with Aβ (ELISA); format: cell-based; settings: M1-4HSC culture
[3] = tested on: α-SMA in M1-4HSC; experiment: α-SMA level in M1-4HSC treated with Aβ (Western blot); format: cell-based; settings: 1000 pg/ml
Text: (§1) The data are shown as means±SEM, *p<0.05, ***p<0.001.

[4] = tested on: M1-4HSC lysates; experiment: Degradation of Aβ42 and Aβ40 by M1-4HSC lysates (ELISA); format: in vitro ADME; settings: for Degradation by M1-4HSC lysates: 1000 pg/ml, normalized to control without cells
[5] = tested on: TGF-β in M1-4HSC; experiment: TGF-β level in M1-4HSC treated with Aβ (Western blot, densitometry); format: cell-based; settings: for Expression of TGF-β: Western blot; for Intensity of TGF-β bands (55 kDa, 44 kDa, 23 kDa) adjusted to GAPDH: densitometric calculations vs. untreated ctrl.
Text: as §1

[6] = Loss of Aβ in cell culture medium without cells (control samples); format: physicochemical
Description: (§2) Therefore, as a control for inherent decrease of amyloid concentrations control samples containing only culture medium, without cells (w/c) were incubated with Aβ for the same periods of time.

[7] = tested on: astroglial primary cultures (APC); experiment: Aβ42 uptake from culture medium by astroglial primary cultures (ELISA of supernatant); format: cell-based, mouse; settings: astrocytes (APC); 1000 pg/ml Aβ42 in medium; 48 h of incubation
Description: Astroglia-rich primary cultures (APC) were prepared from newborn C57/BL6 (Charles River) mouse brains as described elsewhere (Lourhmati A, Buniatian G H, Paul C, et al. Age-dependent astroglial vulnerability to hypoxia and glutamate: the role for erythropoietin. PLoS One 2013; 8:e77182.). Briefly, the cells obtained from 5-7 brains of newborn littermates were mechanically dissociated, centrifuged and plated onto cell culture flasks (1×10^6 cells/75 cm2) in DMEM with 4.5 g/l Glucose supplemented with 10% foetal calf serum, 100 μg/ml streptomycin sulphate, 100 units/ml penicillin G and […] (Biochrom AG, Berlin, Germany) in a humidified 10% CO2 atmosphere at 37° C.
(§3) After 24 h, supernatant was centrifuged at 1500 g for 15 minutes and frozen at −80° C. until analysis.
as §2

[8] = tested on: eNOS in hSEC (human liver endothelial cells); experiment: eNOS synthesis by hSEC treated with Aβ (ELISA); format: cell-based
Text: Means±SEM, *p<0.05, **p<0.01, ***p<0.001.

[9] = tested on: M1-4HSC; experiment: Aβ42 uptake from culture medium by M1-4HSC (ELISA of supernatant); format: cell-based
Description: as §3, §2

[10] = tested on: HSC-T6; experiment: Aβ42 uptake from culture medium by HSC-T6 (ELISA of supernatant); format: cell-based, rat
Description: as §3, §2

[11] = tested on: LX-2; experiment: Aβ42 uptake from culture medium by LX-2 (ELISA of supernatant); format: cell-based, human; settings: 50,000-200,000 cells
Description: as §3

[12] = tested on: Primary murine HSC; experiment: Inhibition of Aβ40 and 42 degradation by HSC in response to sacubitrilat (ELISA of supernatant); format: cell-based; settings: 48 h, with vs. without LBQ657
Description: FIG. 9 (A-B) shown an inhibition of Aβ40 and 42 degradation by HSC in response to sacubitrilat (LBQ657). Primary murine HSC were incubated with 1000 pg/ml Aβ40 or 42 with and without LBQ657. The content of Aβ in the cell culture supernatant was measured by ELISA 48 h after incubation with Aβ40 or 42 with and without LBQ657.

[13] = tested on: VEGF in liver sinusoidal endothelial cells; experiment: VEGF expression in liver sinusoidal endothelial cells exposed to Aβ; format: cell-based
[14] = after 30 minutes of incubation with M1-4HSC lysates

Which “Effect on degradation of Aβ40/42 by M1-4HSC lysates” value [1] does the source give for `O=C(O)CN(CCOCCOCCN(CC(=O)O)CC(=O)O)CC(=O)O` [EGTA] here?
The value was “dramatically inhibited; also recorded: abolished the degradation”.

For amyloid beta 40 [Aβ40], which “Col-1 production (in words)” value [2] is on record?
The value was “only a slight reduction”.

What about the “Expression of α-SMA” value [3] of the same compound?
The value was “reduced the expression”.

And the “Level compared to the initial level in control samples without cell lysates” value [4, 14]?
The value was 50%.

And the “Degradation by M1-4HSC lysates” value ([4]; after 30 minutes)?
The value was 50%.

And the “Level compared to the initial level in control samples without cell lysates” value ([4]; after 60 minutes of incubation with M1-4HSC lysates)?
The value was 25%.

What about the “Degradation by M1-4HSC lysates” value ([4]; after 60 minutes) of the same compound?
The value was 75%.

And the “Expression of TGF-β” value [5]?
Its value is “reduced the expression”.

What about the “Intensity of TGF-β bands (55 kDa, 44 kDa, 23 kDa) adjusted to GAPDH” value [5] of the same compound?
The value was “capable of decreasing only the 44 kDa band”.

Which “Peptide absorbed on plastic carrier” value ([6]; from 1000 pg/ml Aβ42 in culture medium, after 48 h of incubation) does the source give for amyloid beta 42 [Aβ42] here?
Its value is “about 50%”.

What about the “Col-1 production (in words)” value [2] of the same compound?
The value was “suppression of Col-1 production”.

What about the “Aβ42 internalized by cells, of the remaining part available in culture medium” value [7] of the same compound?
The value was 28%.

What about the eNOS synthesis [8] of the same compound?
The eNOS synthesis was “upregulation of eNOS synthesis”.

What about the “Uptake of Aβ42 vs. APC (decrease in cell culture supernatant)” value ([9]; M1-4HSC vs. APC, ELISA) of the same compound?
Its value is “two-fold higher uptake”.

And the “Aβ42 internalized by cells, of the remaining part available in culture medium” value ([9]; M1-4HSC, 1000 pg/ml Aβ42 in medium, 48 h of incubation)?
The value was 55%.

What about the “Expression of α-SMA” value [3] of the same compound?
The value was “reduced the expression”.

And the “Uptake of Aβ42 vs. APC (decrease in cell culture supernatant)” value [10]?
Its value is “two-fold higher uptake”.

What about the “Level compared to the initial level in control samples without cell lysates” value [4, 14] of the same compound?
The value was 50%.

And the “Degradation by M1-4HSC lysates” value ([4]; after 30 minutes)?
The value was 50%.

What about the “Amount of Aβ42 internalized by LX-2” value [11] of the same compound?
The value was “grew with increasing number of cells in culture”.

What about the “Suppression of TGF-β synthesis, Aβ42 compared with Aβ40” value [5] of the same compound?
The value was “more potent than Aβ40”.

What about the “Expression of TGF-β” value [5] of the same compound?
The value was “reduced the expression”.

What about the “Intensity of TGF-β bands (55 kDa, 44 kDa, 23 kDa) adjusted to GAPDH” value [5] of the same compound?
The value was “significantly decreased intensity”.

For `C[C@H](C[C@@H](Cc1ccc(-c2ccccc2)cc1)NC(=O)CCC(=O)O)C(=O)O` [LBQ657, Sacubitrilat], which “Aβ40 degradation by HSC (content of Aβ in supernatant)” value ([12]; 1000 pg/ml Aβ40) is on record?
The value was “Decreased degradation of Aβ”.

What about the “Aβ42 degradation by HSC (content of Aβ in supernatant)” value ([12]; 1000 pg/ml Aβ42) of the same compound?
The value was “Decreased degradation of Aβ”.

For amyloid beta [Aβ], which “Loss of Aβ after incubation with cell culture medium in the absence of cells” value ([6]; 24-48 h, data not shown) is on record?
The value was “over 50%”.

And the eNOS synthesis [8]?
Its eNOS synthesis is “increased synthesis of eNOS”.

What about the “Expression of liver permeability marker VEGF” value [13] of the same compound?
The value was “increase in expression”.
